Experimental data: the supplement of paper PMC13207355
Structures can show the parent of a compound that is named as a salt.

Experiments:
Conditions in all cases: exposure time: 72 h
E28 [1] = patient-derived glioblastoma stem cells of classical subtype; assay: phenotypic distance (Euclidean, principal components) from DMSO controls (arbitrary units); higher = stronger morphological change
FT3469 [2] = normal neural stem cell line; assay: as above
E21 [3] = patient-derived glioblastoma stem cells of mesenchymal subtype; assay: as above
E34 [4] = patient-derived glioblastoma stem cells of proneural subtype; assay: as above
E13 [5] = patient-derived glioblastoma stem cells of classical subtype; assay: as above
E57 [6] = patient-derived glioblastoma stem cells of mesenchymal subtype; assay: as above
E31 [7] = patient-derived glioblastoma stem cells of proneural subtype; assay: as above
E28 [8] = assay: surviving fraction (nuclei count normalised to DMSO); higher = more cells surviving (less toxic)
FT3469 [9] = assay: as above
E21 [10] = assay: as above
E34 [11] = assay: as above
E13 [12] = assay: as above
E57 [13] = assay: as above
E31 [14] = assay: as above
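For phenotypic distance (Euclidean, principal components) from DMSO controls in this document: cell Painting imaging in 384-well plates, CellProfiler features reduced to at least 20 principal components, Euclidean distance versus same-plate DMSO vehicle wells (0.1% v/v), median over six images per well.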
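For surviving fraction (nuclei count normalised to DMSO) in this document: nuclei counted by high-content imaging of Hoechst-stained cells in laminin-coated 384-well plates, relative to 0.1% DMSO vehicle wells, with staurosporine as cell-death control.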

CCOC(=O)OC(C)OC(=O)[C@@H]1N2C(=O)[C@@H](NC(=O)[C@H](N)c3ccccc3)[C@H]2SC1(C)C (stereo partly drawn) [Bacampicillin hydrochloride]
Conditions | phenotypic distance | surviving fraction
E13 [5], 4.1 nM | 0.65 | –
E13 [5], 12.3 nM | 1.12 | –
E13 [5], 37 nM | 0.975 | –
E13 [5], 111.1 nM | 0.635 | –
E13 [5], 333.3 nM | 0.439 | –
E13 [5], 1000 nM | 0.698 | –
E13 [5], 3000 nM | 0.628 | –
E13 [12], 4.1 nM | – | 0.878
E13 [12], 12.3 nM | – | 0.951
E13 [12], 37 nM | – | 1.03
E13 [12], 111.1 nM | – | 0.813
E13 [12], 333.3 nM | – | 1
E13 [12], 1000 nM | – | 1.04
E13 [12], 3000 nM | – | 1.11
E21 [3], 4.1 nM | 0.814 | –
E21 [3], 12.3 nM | 0.643 | –
E21 [3], 37 nM | 1.05 | –
E21 [3], 111.1 nM | 0.376 | –
E21 [3], 333.3 nM | 0.776 | –
E21 [3], 1000 nM | 0.7 | –
E21 [3], 3000 nM | 0.853 | –
E21 [10], 4.1 nM | – | 0.982
E21 [10], 12.3 nM | – | 1.01
E21 [10], 37 nM | – | 1.09
E21 [10], 111.1 nM | – | 1.01
E21 [10], 333.3 nM | – | 1
E21 [10], 1000 nM | – | 0.914
E21 [10], 3000 nM | – | 1.06
E28 [1], 4.1 nM | 0.82 | –
E28 [1], 12.3 nM | 0.789 | –
E28 [1], 37 nM | 1.1 | –
E28 [1], 111.1 nM | 0.421 | –
E28 [1], 333.3 nM | 0.781 | –
E28 [1], 1000 nM | 0.904 | –
E28 [1], 3000 nM | 0.881 | –
E28 [8], 4.1 nM | – | 0.882
E28 [8], 12.3 nM | – | 0.993
E28 [8], 37 nM | – | 1.09
E28 [8], 111.1 nM | – | 1.19
E28 [8], 333.3 nM | – | 0.997
E28 [8], 1000 nM | – | 1.15
E28 [8], 3000 nM | – | 1.06
E31 [7], 4.1 nM | 0.89 | –
E31 [7], 12.3 nM | 0.639 | –
E31 [7], 37 nM | 0.836 | –
E31 [7], 111.1 nM | 0.578 | –
E31 [7], 333.3 nM | 0.932 | –
E31 [7], 1000 nM | 0.697 | –
E31 [7], 3000 nM | 0.565 | –
E31 [14], 4.1 nM | – | 0.986
E31 [14], 12.3 nM | – | 0.807
E31 [14], 37 nM | – | 0.871
E31 [14], 111.1 nM | – | 0.941
E31 [14], 333.3 nM | – | 1
E31 [14], 1000 nM | – | 0.965
E31 [14], 3000 nM | – | 1.1
E34 [4], 4.1 nM | 0.569 | –
E34 [4], 12.3 nM | 0.614 | –
E34 [4], 37 nM | 0.651 | –
E34 [4], 111.1 nM | 0.507 | –
E34 [4], 333.3 nM | 1.28 | –
E34 [4], 1000 nM | 0.329 | –
E34 [4], 3000 nM | 1.06 | –
E34 [11], 4.1 nM | – | 0.918
E34 [11], 12.3 nM | – | 1.02
E34 [11], 37 nM | – | 0.858
E34 [11], 111.1 nM | – | 0.934
E34 [11], 333.3 nM | – | 1.25
E34 [11], 1000 nM | – | 1.05
E34 [11], 3000 nM | – | 1.07
E57 [6], 4.1 nM | 0.537 | –
E57 [6], 12.3 nM | 1.07 | –
E57 [6], 37 nM | 0.681 | –
E57 [6], 111.1 nM | 0.754 | –
E57 [6], 333.3 nM | 0.45 | –
E57 [6], 1000 nM | 0.576 | –
E57 [6], 3000 nM | 0.604 | –
E57 [13], 4.1 nM | – | 0.987
E57 [13], 12.3 nM | – | 1.09
E57 [13], 37 nM | – | 0.961
E57 [13], 111.1 nM | – | 1.03
E57 [13], 333.3 nM | – | 0.926
E57 [13], 1000 nM | – | 0.97
E57 [13], 3000 nM | – | 0.956
FT3469 [2], 4.1 nM | 0.697 | –
FT3469 [2], 12.3 nM | 0.387 | –
FT3469 [2], 37 nM | 0.735 | –
FT3469 [2], 111.1 nM | 0.551 | –
FT3469 [2], 333.3 nM | 0.433 | –
FT3469 [2], 1000 nM | 0.827 | –
FT3469 [2], 3000 nM | 0.96 | –
FT3469 [9], 4.1 nM | – | 0.909
FT3469 [9], 12.3 nM | – | 0.875
FT3469 [9], 37 nM | – | 1.05
FT3469 [9], 111.1 nM | – | 0.978
FT3469 [9], 333.3 nM | – | 1.03
FT3469 [9], 1000 nM | – | 1.05
FT3469 [9], 3000 nM | – | 0.858
